Assay results published in US20100048594A1, “USE OF CYTOHESIN INHIBITORS FOR CHEMICALLY INDUCING LONGEVITY” (RHEINISCHE FRIEDRICH-WILHELMS UNIVERSITAT, priority 2006, published 2010).

How the values were obtained:
[1] = tested on: Akt; test: Insulin-stimulated phosphorylation of Akt in Drosophila S2 Schneider cells (Western blot); assay type: cell-based; settings: 10 μM compound 2 hours, 10 μg/ml human insulin 15 minutes
Description: 10^6 Drosophila S2 cells (Schneider, 1972. J. Embryol. Exp. Morphol. 27, 353) were seeded in cell culture medium (PAN company) with 10% fetal calf serum and 1% streptomycin, penicillin (Gibco) in 35 mm cell culture plates (Nunc company) and cultivated for 2 days at 25° C. to 70-80% confluence. After 2 days, 0.5% (v/v) of the medium DMSO was added, and, based upon the experiment, 10 μM of the compound according to formula (9) was added for 2 hours before insulin stimulation. For an insulin stimulation, human insulin (Sigma) was used for 15 minutes at a rate of 10 μg/ml. Once stimulation was complete, the cells were washed with cold PBS, lysed in cold (4° C.) lysate buffer (50 mM Tris-HCl, pH 8.0, 150 mM NaCl, 1.0% Triton X-100, 0.1% SDS, 0.5% sodium deoxycholate, 50 mM NaF, 100 μM sodium orthovanadate, 1 mM phenylmethylsulfonyl fluoride and EDTA-free protease inhibitor (Roche), according to manufacturer's instructions, and used in the Western Blot analysis.
In each case, 10 μg protein were isolated on a 12% SDS polyacrylamide gel and transferred to 0.22 μm porous nitrocellulose membranes (Amersham). […]
Visualization was performed by means of the ECL Kit (Enhanced Chemiluminescence, Amersham) using the VersaDoc 5000 Imaging System (BioRad) and the QuantityOne software (BioRad).

[2] = tested on: Akt; test: Insulin-stimulated phosphorylation of Akt in mouse liver after feeding (immunoblot); assay type: in vivo, C57BL/6 mice; settings: food with 0.9 μmol/g compound for 3 days, 40 μg insulin i.p.
Text: C57BL/6 mice (Charles River Laboratories) that had been kept in a pathogen-free animal facility, maintaining a 12-hour light/dark cycle, were used. The animals received standard mouse food (19% protein, 3.3% fat, 41.3% carbohydrates; ssniff Spezialdiäten GmbH) ad libitum. Male animals between the ages of 8 and 12 weeks were used.
A group of 6 C57BL/6 mice received standard mouse food mixed with 0.9 μmol/g of the compound according to formula (9) for a period of 3 days, while a control group of 6 animals received standard mouse food. The animals were then injected intraperitoneally with 100 μl normal saline solution (control group) or saline solution with 40 μg recombinant human insulin (Sigma). After 10 minutes the mice were anesthetized, the livers were removed and were lysed in lysate buffer (20 mM Tris-Cl, pH 7.5, 150 mM NaCl, 1 mM EDTA, 1 mM EGTA, 2.5 mM sodium pyrophosphate, 1 mM β-glycerophosphate, 1 mM sodium vanadate, 1% Triton X-100) and protease inhibitor mix HP (Serva).
Further, standardized quantities of protein were separated out using SDS-PAGE, and this protein was identified via immunoblotting, after being transferred to nitrocellulose membranes, with an antibody, against the phosphorylated protein Akt, pAkt (Thr308) (cell signaling). Visualization and evaluation were performed as described in Example 2.

[3] = tested on: Akt; test: Insulin-dependent phosphorylation of Akt in HepG2 cells (immunoblot); assay type: cell-based, human; settings: 100 nM insulin
Description: Human hepG2 cells (ECACC) were cultivated in EMEM medium (Cambrex) with the addition of 10% fetal calf serum. 10^5 cells were seeded in 2 ml medium in 6 well plates and were cultivated at 37° C. in a moist atmosphere with 5% CO2 for 1 to 3 days, before being used for experiments.
The expression of IGFBP1 (insulin-like growth factor binding protein) is controlled by insulin via the forkhead box transcription factors O1A (FoxO1A) and O3A (FoxO3A). Following insulin stimulation, the protein kinase B/Akt (PKB/Akt) is activated via phosphorylation, based upon the phosphoinositide-3-kinase (PI3K), reaches the nucleus where it phosphorylates the transcription factor O1A (FoxO1A), which leads to a decrease in the gene expression of IGFBP1, for example.
For human HepG2 cells (ECACC), serum was removed from the medium for 90 minutes, the cells were incubated for another 60 minutes with 5 μM, 10 μM and 15 μM of the compound according to formula (9), 200 nM Wortmannin or DMSO (dimethylsulfoxide) at a corresponding concentration, after which the cells were stimulated for 10 minutes with 100 nM insulin. The cells were then lysed in lysate buffer (20 mM Tris-Cl, pH 7.5, 150 mM NaCl, 1 mM EDTA, 1 mM EGTA, 2.5 mM sodium pyrophosphate, 1 mM β-glycerophosphate, 1 mM sodium vanadate, 1% Triton X-100) and protease inhibitor mix HP (Serva).
Standardized quantities of protein were separated out using SDS-PAGE, and were transferred to nitrocellulose membranes. For protein identification via immunoblotting, an antibody was used against the phosphorylated protein Akt, pAkt (Thr308) (cell signaling). Visualization was carried out using the Enhanced Chemiluminescence System (Millipore) using a VersaDoc 5000 CCD camera (BioRad), and the intensity of the bands was quantified using the QuantityOne software (BioRad).

COc1nc(-c2ccc3c(c2)OCO3)n(-c2ccc(NC(=O)CSc3ccccc3)cc2)n1 [Compound (9)]
insulin-stimulated phosphorylation of the protein Akt [1]: decreased by half
inhibition of the phosphorylation of the protein Akt stimulated by insulin [2]: approximately 40%
reduction in the phosphorylation of Akt as compared with phosphorylation following insulin stimulation ([3]; HepG2 cells, 10 μM compound): 50%
phosphorylation of Akt as % of the phosphorylation following insulin stimulation ([3]; HepG2 cells, 15 μM compound): approximately 25%
insulin-dependent phosphorylation of Akt ([3]; HepG2 cells, 5, 10, 15 μM compound, based upon concentration): inhibited
